Data on 7 molecules can be found in patent US10670609B2, “Ytterbium as a surrogate cation to measure calcium flux” (Government of the United States, as represented by the …, priority 2017, dated 2020).

This test concerns Human retinal pigmented epithelium cells (RPE). Put plainly: NO bioassay: DAF-FM DA fluorescence as indicator of NO in RPE cells. It is filed as cell-based.
The mark [1] stands for this setting: RPE cells in PBS supplemented with Ca2+ and Mg2+.
Setting [2] is: RPE cells without calcium (calcium-free PBS).
[3] abbreviates: Table 3, DAF-FM DA NO fluorescence change vs control, WT RPE cells in PBS with 5 mM Ca2+ + Mg2+ + 8 mM pyruvate, agent 300 ppm unless stated.

The structures appear in SMILES notation. Like-named read-outs stand apart in the source and are kept apart here.

On to `[Pr+3]` [Pr^3+], for which the “NO level (DAF-FM DA fluorescence) relative to control, in words” value runs as follows: under setting [1], “dropped by varying degrees”; under setting [2], “could not be restored”. Besides, under setting [3], the “[(E − C)/C] × 100 (N = 3, A.U. %)” value is listed as −91%. Also, the “decrease of NO (low DAF-FM DA fluorescence), modal” value (addition of agent to RPE cells, Table 3) came out at 91%.

Turning to `O=C1c2c(O)cccc2Cc2cccc(O)c21` [Dithranol], the “[(E − C)/C] × 100 (N = 3, A.U. %)” value under setting [3] is −69%.

`[Ce+3]` [Ce^3+]: the “NO level (DAF-FM DA fluorescence) relative to control, in words” value by setting is: under setting [1], “dropped by varying degrees”; under setting [2], “could not be restored”. For the same molecule, the “[(E − C)/C] × 100 (N = 3, A.U. %)” value under setting [3] is recorded as −96%.

`[Ca+2].[Cl-].[Cl-]` [Ca^2+, calcium chloride]: the “NO level (DAF-FM DA fluorescence) relative to control, in words” value was “slight decrease in NO”.

For `O=NO` [Nitrite, sodium nitrite], the “NO level (DAF-FM DA fluorescence) relative to control, in words” value is “increased relative to control” and the “[(E − C)/C] × 100 (N = 3, A.U. %)” value came out at 2%.

As for `[Fe+3]` [Fe^3+], the “NO level (DAF-FM DA fluorescence) relative to control, in words” value runs as follows: under setting [1], “dropped by varying degrees”; under setting [2], “could not be restored”. Also, the “[(E − C)/C] × 100 (N = 3, A.U. %)” value under setting [3] is on record as −93%.

Turning to `CC(=O)OCOC(=O)CN(CC(=O)OCOC(C)=O)c1ccccc1OCCOc1ccccc1N(CC(=O)OCOC(C)=O)CC(=O)OCOC(C)=O` [BAPTA, 1,2-Bis(2-amino-phenoxy)ethane-N,N,N′,N′-tetraacetic acid tetrakis (acetoxymethyl ester)], the “NO level (DAF-FM DA fluorescence) relative to control, in words” value is “lower” and the “[(E − C)/C] × 100 (N = 6, A.U. %)” value was determined as 11%.
